Test results: patent US12391686B2, “Compounds and uses thereof” (Foghorn Therapeutics Inc., priority 2019, dated 2025)

Columns and labels:
[1] = target: T1, BRD9 bromodomain (Flag-BRD9 P133-K239; Swiss Prot Q9H8M2) (Homo sapiens, UniProt Q9H8M2); assay: BRD9 Bromodomain TR-FRET Competition Binding Assay; conditions: competition with biotinylated BRD9 ligand; 90 minutes at room temperature
T1 construct: His-Flag-BRD9 (P133-K239); Swiss Prot Q9H8M2; His6 with TEV site (mgsshhhhhhenlyfq/) (N, cleaved yes); made in house
T1 sequence (Q9H8M2 133-239): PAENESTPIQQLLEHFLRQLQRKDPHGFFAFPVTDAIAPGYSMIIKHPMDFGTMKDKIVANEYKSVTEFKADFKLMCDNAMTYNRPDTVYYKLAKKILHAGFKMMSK
Protocol: Procedure: His-Flag-BRD9 (P133-K239; Swiss Prot Q9H8M2; SEQ ID NO:1 mgsshhhhhhenlyfq/gdykddddkgslevlfqg/[…] […]) was cloned, expressed, purified, and then treated with TEV protease. Cleaved His tag was removed by purification. The binding of a biotinylated small molecule ligand of BRD9 was assessed via the LANCE® TR-FRET platform (PerkinElmer), and the compounds were assayed for inhibitory activity against this interaction.
Results: A mixture of biotinylated-ligand and SureLight™ Allophycocyanin-Streptavidin (APC-SA, PerkinElmer AD0201) in 50 mM HEPES (pH 7.4), 50 mM NaCl, 1 mM TCEP (pH 7), 0.01% (v/v) Tween-20, 0.01% (w/v) bovine serum albumin was added to a white 384-well PerkinElmer Proxiplate Plus plate. DMSO or 3-fold serially diluted compounds were then added to the Proxiplate followed by addition of Flag-BRD9. After a 10-minute incubation at room temperature, Eu-W1024 anti-FLAG (PerkinElmer, AD0273) was added. The final reaction mixture that contained 3.75 nM biotinylated ligand, 3 nM Flag-BRD9, 7.5 nM SureLight™ Allophycocyanin-Streptavidin, and 0.2 nM Eu-W1024 anti-FLAG was incubated at room temperature for 90 minutes.
The plates were then read on a PerkinElmer Envision plate reader to determine the ratio of emission at 665 nm over 615 nm. […]

[2] = target: T2, Nanoluciferase-BRD9 fusion protein (3×FLAG-NLuc-BRD9) in SYO-1 cells (Homo sapiens, UniProt Q9H8M2); assay: SYO1 BRD9 NanoLuc Degradation Assay; assay type: cell-based; conditions: 6 hours; SYO-1 cells expressing 3×FLAG-NLuc-BRD9; top dose 1 μM; read-out: SYO1 BRD9-NanoLuc degradation IC50
T2 construct: expressed in transfected cells; host or cells: SYO-1
T2 sequence (Q9H8M2 1-597): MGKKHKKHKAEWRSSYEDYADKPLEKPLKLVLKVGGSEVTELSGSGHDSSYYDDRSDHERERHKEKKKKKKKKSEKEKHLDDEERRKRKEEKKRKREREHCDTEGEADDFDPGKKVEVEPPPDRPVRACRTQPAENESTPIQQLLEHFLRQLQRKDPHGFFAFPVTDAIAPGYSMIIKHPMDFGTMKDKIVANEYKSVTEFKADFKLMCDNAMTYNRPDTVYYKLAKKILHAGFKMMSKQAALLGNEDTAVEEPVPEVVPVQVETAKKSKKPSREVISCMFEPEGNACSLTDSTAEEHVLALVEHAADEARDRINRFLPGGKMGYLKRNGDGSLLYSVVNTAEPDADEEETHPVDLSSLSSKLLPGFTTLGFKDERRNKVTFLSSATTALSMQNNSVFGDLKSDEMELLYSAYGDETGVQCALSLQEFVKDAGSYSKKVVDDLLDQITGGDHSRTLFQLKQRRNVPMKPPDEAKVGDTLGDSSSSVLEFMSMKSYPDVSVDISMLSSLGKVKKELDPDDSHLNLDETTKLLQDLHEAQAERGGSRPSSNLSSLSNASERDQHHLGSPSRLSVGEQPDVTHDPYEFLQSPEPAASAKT
Method in brief: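 NanoLuc signal, read by Nano-Glo luminescence after 6 h compound exposure, gives % inhibition against DMSO-treated cells (high control) and cells given 1 μM of a standard BRD9 degrader (low control). Test compounds ran as 10-point 3-fold series, top 1 μM final, in duplicate on SYO-1 cells stably expressing 3×FLAG-NLuc-BRD9.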

COc1cc(-c2cn(C)c(=O)c3cnc(N(C)C)cc23)cc(OC)c1CN1CC[C@H]1CN(C)Cc1cccc2c1C(=O)N(C1CCC(=O)NC1=O)C2=O (stereo partly drawn) [Compound D2, 4-(((((S)-1-(4-(6-(dimethylamino)-2-methyl-1-oxo-1,2-dihydro-2,7-naphthyridin-4-yl)-2,6-dimethoxybenzyl)azetidin-2-yl)methyl)(methyl)amino)methyl)-2-(2,6-dioxopiperidin-3-yl)isoindoline-1,3-dione]
IC50 [1]: < 10 nM
DC50 [2]: ≥ 100 nM

COc1cc(-c2cn(C)c(=O)c3cnc(N(C)C)cc23)cc(OC)c1CN1CC(N(C)Cc2cccc3c2C(=O)N(C2CCC(=O)NC2=O)C3=O)C1 (stereo not shown) [Compound D3, 4-([[1-([4-[6-(dimethylamino)-2-methyl-1-oxo-2,7-naphthyridin-4-yl]-2,6-dimethoxyphenyl]methyl)azetidin-3-yl](methyl)amino]methyl)-2-(2,6-dioxopiperidin-3-yl)isoindole-1,3-dione formic acid]
IC50 [1]: < 10 nM
DC50 [2]: ≥ 10 nM

COc1cc(-c2cn(C)c(=O)c3cnc(N(C)C)cc23)cc(OC)c1CN1CC[C@H]1C(=O)N(C)Cc1cccc2c1C(=O)N(C1CCC(=O)NC1=O)C2=O (stereo partly drawn) [Compound D4, (2S)-1-(4-(6-(dimethylamino)-2-methyl-1-oxo-1,2-dihydro-2,7-naphthyridin-4-yl)-2,6-dimethoxybenzyl)-N-((2-(2,6-dioxopiperidin-3-yl)-1,3-dioxoisoindolin-4-yl)methyl)-N-methylazetidine-2-carboxamide formic acid]
IC50 [1]: < 10 nM
DC50 [2]: ≥ 100 nM

COc1cc(-c2cn(C)c(=O)c3cnc(NCCCCCCCCNC(=O)COc4cccc5c4C(=O)N(C4CCC(=O)NC4=O)C5=O)cc23)cc(OC)c1CN(C)C (stereo not shown) [Compound D5, N-[8-[(5-[4-[(dimethylamino)methyl]-3,5-dimethoxyphenyl]-7-methyl-8-oxo-2,7-naphthyridin-3-yl)amino]octyl]-2-[[2-(2,6-dioxopiperidin-3-yl)-1,3-dioxoisoindol-4-yl]oxy]acetamide formic acid]
IC50 [1]: ≥ 10 nM
DC50 [2]: ≥ 100 nM

COc1cc(-c2cn(C)c(=O)c3cnc(NCCCCCOc4cccc5c4C(=O)N(C4CCC(=O)NC4=O)C5=O)cc23)c(OC)cc1CN(C)C (stereo not shown) [Compound D6, 4-((5-((5-(4-((dimethylamino)methyl)-2,5-dimethoxyphenyl)-7-methyl-8-oxo-7,8-dihydro-2,7-naphthyridin-3-yl)amino)pentyl)oxy)-2-(2,6-dioxopiperidin-3-yl)isoindoline-1,3-dione formic acid]
IC50 [1]: ≥ 10 nM
DC50 [2]: ≥ 10 nM

CNc1cc2c(=O)n(C)cc(-c3cc(OC)c(CN4CC(C(=O)NCCCCCOc5cccc6c5C(=O)N(C5CCC(=O)NC5=O)C6=O)C4)c(OC)c3)c2cn1 (stereo not shown) [Compound D7, 1-([2,6-dimethoxy-4-[2-methyl-7-(methylamino)-1-oxo-2,6-naphthyridin-4-yl]phenyl]methyl)-N-(5-[[2-(2,6-dioxopiperidin-3-yl)-1,3-dioxoisoindol-4-yl]oxy]pentyl)azetidine-3-carboxamide formic acid]
IC50 [1]: < 10 nM
DC50 [2]: < 10 nM

COc1cc(-c2cn(C)c(=O)c3cc(NCCCCCCCCNC(=O)COc4cccc5c4C(=O)N(C4CCC(=O)NC4=O)C5=O)ncc23)cc(OC)c1CN(C)C (stereo not shown) [Compound D8, N-[8-[(8-[4-[(dimethylamino)methyl]-3,5-dimethoxyphenyl]-6-methyl-5-oxo-2,6-naphthyridin-3-yl)amino]octyl]-2-[[2-(2,6-dioxopiperidin-3-yl)-1,3-dioxoisoindol-4-yl]oxy]acetamide]
IC50 [1]: ≥ 10 nM
DC50 [2]: ≥ 10 nM

COc1cc(-c2cn(C)c(=O)c3cc(NC(=O)CCOCCOCCNc4cccc5c4C(=O)N(C4CCC(=O)NC4=O)C5=O)ncc23)cc(OC)c1CN(C)C (stereo not shown) [Compound D9, N-(8-[4-[(dimethylamino)methyl]-3,5-dimethoxyphenyl]-6-methyl-5-oxo-2,6-naphthyridin-3-yl)-3-[2-(2-[[2-(2,6-dioxopiperidin-3-yl)-1,3-dioxoisoindol-4-yl]amino]ethoxy)ethoxy]propanamide]
IC50 [1]: ≥ 100 nM
DC50 [2]: ≥ 1000 nM

COc1cc(-c2cn(C)c(=O)c3cnc(NCCOCCOCCNc4cccc5c4C(=O)N(C4CCC(=O)NC4=O)C5=O)cc23)cc(OC)c1CN(C)C (stereo not shown) [Compound D10, 4-[[2-(2-[2-[(5-[4-[(dimethylamino)methyl]-3,5-dimethoxyphenyl]-7-methyl-8-oxo-2,7-naphthyridin-3-yl)amino]ethoxy]ethoxy)ethyl]amino]-2-(2,6-dioxopiperidin-3-yl)isoindole-1,3-dione formic acid]
IC50 [1]: ≥ 10 nM
DC50 [2]: ≥ 10 nM

COc1cc(-c2cn(C)c(=O)c3cnc(NC(=O)CCOCCOCCNc4cccc5c4C(=O)N(C4CCC(=O)NC4=O)C5=O)cc23)cc(OC)c1CN(C)C (stereo not shown) [Compound D11, N-(5-(4-((dimethylamino)methyl)-3,5-dimethoxyphenyl)-7-methyl-8-oxo-7,8-dihydro-2,7-naphthyridin-3-yl)-3-(2-(2-((2-(2,6-dioxopiperidin-3-yl)-1,3-dioxoisoindolin-4-yl)amino)ethoxy)ethoxy)propanamide formic acid]
IC50 [1]: ≥ 10 nM
DC50 [2]: ≥ 100 nM

COc1cc(-c2cn(C)c(=O)c3cc(N(C)CC(=O)NCCCCCOc4cccc5c4C(=O)N(C4CCC(=O)NC4=O)C5=O)ncc23)cc(OC)c1CN(C)C (stereo not shown) [Compound D12, 2-[(8-[4-[(dimethylamino)methyl]-3,5-dimethoxyphenyl]-6-methyl-5-oxo-2,6-naphthyridin-3-yl)(methyl)amino]-N-(5-[[2-(2,6-dioxopiperidin-3-yl)-1,3-dioxoisoindol-4-yl]oxy]pentyl)acetamide formic acid]
IC50 [1]: < 10 nM
DC50 [2]: ≥ 10 nM

COc1cc(-c2cn(C)c(=O)c3cc(NC(=O)CCOCCOCCNc4ccc5c(c4)C(=O)N(C4CCC(=O)NC4=O)C5=O)ncc23)cc(OC)c1CN(C)C (stereo not shown) [Compound D13, N-(8-[4-[(dimethylamino)methyl]-3,5-dimethoxyphenyl]-6-methyl-5-oxo-2,6-naphthyridin-3-yl)-3-[2-(2-[[2-(2,6-dioxopiperidin-3-yl)-1,3-dioxoisoindol-5-yl]amino]ethoxy)ethoxy]propanamide formic acid]
IC50 [1]: ≥ 100 nM
DC50 [2]: ≥ 1000 nM

COc1cc(-c2cn(C)c(=O)c3cnc(NC(=O)CCOCCOCCNc4ccc5c(c4)C(=O)N(C4CCC(=O)NC4=O)C5=O)cc23)cc(OC)c1CN(C)C (stereo not shown) [Compound D14, N-(5-(4-((dimethylamino)methyl)-3,5-dimethoxyphenyl)-7-methyl-8-oxo-7,8-dihydro-2,7-naphthyridin-3-yl)-3-(2-(2-((2-(2,6-dioxopiperidin-3-yl)-1,3-dioxoisoindolin-5-yl)amino)ethoxy)ethoxy)propanamide formic acid]
IC50 [1]: ≥ 10 nM
DC50 [2]: ≥ 100 nM

CNc1cc2c(=O)n(C)cc(-c3cc(OC)c(CN4CCC5(CC4)CN(C(=O)CCCCOc4cccc6c4C(=O)N(C4CCC(=O)NC4=O)C6=O)CCO5)c(OC)c3)c2cn1 (stereo not shown) [Compound D15, 4-([5-[9-([2,6-dimethoxy-4-[2-methyl-7-(methylamino)-1-oxo-2,6-naphthyridin-4-yl]phenyl]methyl)-1-oxa-4,9-diazaspiro[5.5]undecan-4-yl]-5-oxopentyl]oxy)-2-(2,6-dioxopiperidin-3-yl)isoindole-1,3-dione formic acid]
IC50 [1]: < 10 nM
DC50 [2]: < 10 nM
